The target in this assay is T1, CFTR (Homo sapiens, UniProt P13569, DEL508-508).
T1 construct: Primary CF airway epithelial cells were obtained from the UNC Cystic Fibrosis Tissue Procurement and Cell Culture Core; host or cells: primary CF airway epithelial cells
The assay is described as follows: Equivalent current assay in Primary CF airway epithelial cells (NAUC). The assay is classed as cell-based. The note with it: 24 h, normalized to VX809 (3 μM) positive control; for Nauc @ 3 μM: 3 μM test compound; for Nauc @ 10 μM: 10 μM test compound. Summed up: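 NAUC is the area under the curve from forskolin (10 μM) plus VX770 (1 μM) addition to CFTR-172 (20 μM) block, after benzamil (5 μM). It is corrected for vehicle and scaled to 3 μM VX809 as 1.0 and DMSO as 0.0. Cells were exposed for 24 h to compounds with VX809; medians of ≥4 replicates were fitted sigmoidally.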

T1 sequence (P13569 with tags, fused parts or gaps DEL508-508): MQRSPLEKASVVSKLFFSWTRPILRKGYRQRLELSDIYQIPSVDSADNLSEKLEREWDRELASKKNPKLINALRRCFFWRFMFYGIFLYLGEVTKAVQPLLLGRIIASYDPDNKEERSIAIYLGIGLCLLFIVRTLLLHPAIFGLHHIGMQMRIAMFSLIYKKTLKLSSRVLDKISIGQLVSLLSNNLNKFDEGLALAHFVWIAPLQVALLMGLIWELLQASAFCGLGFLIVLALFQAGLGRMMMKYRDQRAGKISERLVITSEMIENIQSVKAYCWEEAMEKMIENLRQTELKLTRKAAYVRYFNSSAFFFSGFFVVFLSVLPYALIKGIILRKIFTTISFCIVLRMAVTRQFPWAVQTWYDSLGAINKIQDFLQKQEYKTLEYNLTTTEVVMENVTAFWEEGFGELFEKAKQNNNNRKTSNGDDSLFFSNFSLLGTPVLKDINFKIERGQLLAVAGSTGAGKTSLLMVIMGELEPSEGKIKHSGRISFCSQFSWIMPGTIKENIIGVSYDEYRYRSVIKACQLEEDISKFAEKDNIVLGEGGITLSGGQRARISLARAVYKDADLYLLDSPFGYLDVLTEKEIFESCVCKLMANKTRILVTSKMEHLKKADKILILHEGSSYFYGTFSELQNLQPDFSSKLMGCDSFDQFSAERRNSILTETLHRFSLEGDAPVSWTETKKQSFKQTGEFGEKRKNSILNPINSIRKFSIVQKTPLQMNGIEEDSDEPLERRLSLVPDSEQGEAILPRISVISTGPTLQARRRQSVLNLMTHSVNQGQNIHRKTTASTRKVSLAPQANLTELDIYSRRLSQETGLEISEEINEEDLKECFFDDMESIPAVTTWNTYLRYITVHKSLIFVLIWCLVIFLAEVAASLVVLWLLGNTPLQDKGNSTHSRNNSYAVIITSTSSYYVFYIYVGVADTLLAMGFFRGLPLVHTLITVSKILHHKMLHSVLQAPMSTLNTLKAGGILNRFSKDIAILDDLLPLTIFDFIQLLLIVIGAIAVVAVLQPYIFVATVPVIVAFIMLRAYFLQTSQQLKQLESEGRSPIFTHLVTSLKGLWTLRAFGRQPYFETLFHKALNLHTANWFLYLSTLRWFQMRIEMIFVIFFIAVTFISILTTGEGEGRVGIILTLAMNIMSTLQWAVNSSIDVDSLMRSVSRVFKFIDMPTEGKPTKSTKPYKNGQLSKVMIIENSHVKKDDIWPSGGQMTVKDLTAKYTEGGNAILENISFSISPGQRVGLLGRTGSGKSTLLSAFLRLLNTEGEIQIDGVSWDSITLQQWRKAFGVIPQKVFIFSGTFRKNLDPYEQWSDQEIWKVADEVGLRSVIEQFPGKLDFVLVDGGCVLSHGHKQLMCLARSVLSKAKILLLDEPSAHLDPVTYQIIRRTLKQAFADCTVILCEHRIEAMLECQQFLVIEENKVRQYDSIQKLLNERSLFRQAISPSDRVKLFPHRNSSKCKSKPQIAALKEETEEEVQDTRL

With `CC(C)CC1NC2(C(=O)Nc3c(Cl)cc(Cl)cc32)C2C(=O)N(c3cc(Cl)cc(Cl)c3)C(=O)C12` (centres unmarked) [Example 164], the “Nauc @ 3 μM” value is “++ (NAUC “++” refers to an observed NAUC 170-140% of positive control)” and the “Nauc @ 10 μM” value is recorded as “+++ (NAUC “+++” refers to an observed NAUC >170% of positive control)”.
The corresponding values for `O=C1C2C(CO)NC3(C(=O)Nc4c(Cl)cc(Cl)cc43)C2C(=O)N1c1cc(Cl)cc(Cl)c1` (centres unmarked) [Example 165] are “++ (NAUC “++” refers to an observed NAUC 170-140% of positive control)” and “++ (NAUC “++” refers to an observed NAUC 170-140% of positive control)”.
For `CC(O)C1NC2(C(=O)Nc3c(Cl)cc(Cl)cc32)C2C(=O)N(c3cc(Cl)cc(Cl)c3)C(=O)C12` (centres unmarked) [Example 166], in that order: “++ (NAUC “++” refers to an observed NAUC 170-140% of positive control)” and “++ (NAUC “++” refers to an observed NAUC 170-140% of positive control)”.
On to `COC1(OC)CC2C3C(=O)N(c4cc(Cl)cc(Cl)c4)C(=O)C3C3(C(=O)Nc4c(Cl)cc(Cl)cc43)N2C1` (centres unmarked) [Example 167], for which the “Nauc @ 3 μM” value is “+ (NAUC “+” refers to an observed NAUC <140% of positive control)” and the “Nauc @ 10 μM” value is given as “++ (NAUC “++” refers to an observed NAUC 170-140% of positive control)”.
Consider `COc1c(Cl)cc(N2C(=O)C3C4CC(OC)(OC)CN4C4(C(=O)Nc5c(Cl)cc(Cl)cc54)C3C2=O)cc1Cl` (centres unmarked) [Example 168], for which the “Nauc @ 3 μM” value was “+ (NAUC “+” refers to an observed NAUC <140% of positive control)” and the “Nauc @ 10 μM” value is recorded as “++ (NAUC “++” refers to an observed NAUC 170-140% of positive control)”.
Turning to `O=C1C2C3CC4(CN3C3(C(=O)Nc5c(Cl)cc(Cl)cc53)C2C(=O)N1c1cc(Cl)cc(Cl)c1)OCCO4` (centres unmarked) [Example 169], the “Nauc @ 3 μM” value is recorded as “+ (NAUC “+” refers to an observed NAUC <140% of positive control)” and the “Nauc @ 10 μM” value is on record as “++ (NAUC “++” refers to an observed NAUC 170-140% of positive control)”.
The corresponding values for `C[C@]1(O)CC2C3C(=O)N(c4cc(Cl)cc(Cl)c4)C(=O)C3C3(C(=O)Nc4c(Cl)cc(Cl)cc43)N2C1` (some centres unmarked) [Example 171] are “+++ (NAUC “+++” refers to an observed NAUC >170% of positive control)” and “+++ (NAUC “+++” refers to an observed NAUC >170% of positive control)”.
The corresponding values for `C[C@]1(O)CC2C3C(=O)N(c4cc(Cl)cc(Cl)n4)C(=O)C3C3(C(=O)Nc4c(Cl)cc(Cl)cc43)N2C1` (some centres unmarked) [Example 172] are “++ (NAUC “++” refers to an observed NAUC 170-140% of positive control)” and “+++ (NAUC “+++” refers to an observed NAUC >170% of positive control)”.
The corresponding values for `C[C@@]1(F)CC2C3C(=O)N(c4cc(Cl)cc(Cl)n4)C(=O)C3C3(C(=O)Nc4c(Cl)cc(Cl)cc43)N2C1` (some centres unmarked) [Example 173] are “+++ (NAUC “+++” refers to an observed NAUC >170% of positive control)” and “+++ (NAUC “+++” refers to an observed NAUC >170% of positive control)”.
Regarding `O=C1C2C3CC4(CC4)CN3C3(C(=O)Nc4c(Cl)cc(Cl)cc43)C2C(=O)N1c1cc(Cl)cc(Cl)c1` (centres unmarked) [Example 174], the “Nauc @ 3 μM” value was “+++ (NAUC “+++” refers to an observed NAUC >170% of positive control)” and the “Nauc @ 10 μM” value is recorded as “+++ (NAUC “+++” refers to an observed NAUC >170% of positive control)”.
With `CC1(C)CC2C3C(=O)N(c4cc(Cl)cc(Cl)n4)C(=O)C3C3(C(=O)Nc4c(Cl)cc(Cl)cc43)N2C1` (centres unmarked) [Example 175], the “Nauc @ 3 μM” value is given as “+++ (NAUC “+++” refers to an observed NAUC >170% of positive control)” and the “Nauc @ 10 μM” value is recorded as “+++ (NAUC “+++” refers to an observed NAUC >170% of positive control)”.
For `CC1(C)CC2C3C(=O)N(c4cc(Cl)cc(Cl)n4)C(=O)C3C3(C(=O)Nc4c(Cl)cc(Cl)cc43)N2C1` (centres unmarked) [Example 176], the “Nauc @ 3 μM” value is “++ (NAUC “++” refers to an observed NAUC 170-140% of positive control)” and the “Nauc @ 10 μM” value was “++ (NAUC “++” refers to an observed NAUC 170-140% of positive control)”.
Turning to `COc1c(Cl)cc(N2C(=O)C3C4CC5(CC5)CN4C4(C(=O)Nc5c(Cl)cc(Cl)cc54)C3C2=O)cc1Cl` (centres unmarked) [Example 177], the “Nauc @ 3 μM” value was “++ (NAUC “++” refers to an observed NAUC 170-140% of positive control)” and the “Nauc @ 10 μM” value was “+++ (NAUC “+++” refers to an observed NAUC >170% of positive control)”.
With `O=C1C2C(Cc3ccccc3F)NC3(C(=O)Nc4c(Cl)cc(Cl)cc43)C2C(=O)N1c1cc(Cl)cc(Cl)c1` (centres unmarked) [Example 181], the “Nauc @ 3 μM” value is “+++ (NAUC “+++” refers to an observed NAUC >170% of positive control)” and the “Nauc @ 10 μM” value is “+++ (NAUC “+++” refers to an observed NAUC >170% of positive control)”.
With `Cc1cccc(N2C(=O)C3C4CCCN4C4(C(=O)Nc5c(Cl)cc(Cl)cc54)C3C2=O)n1` (centres unmarked) [Example 183], the “Nauc @ 3 μM” value is on record as “++ (NAUC “++” refers to an observed NAUC 170-140% of positive control)” and the “Nauc @ 10 μM” value is given as “+ (NAUC “+” refers to an observed NAUC <140% of positive control)”.
For `O=C1C2C3CC4(CC4)CN3C3(C(=O)Nc4c(Cl)cc(Cl)cc43)C2C(=O)N1c1cc(Cl)cc(Cl)n1` (centres unmarked) [Example 184], in that order: “+++ (NAUC “+++” refers to an observed NAUC >170% of positive control)” and “+++ (NAUC “+++” refers to an observed NAUC >170% of positive control)”.
Consider `[2H]C([2H])([2H])C1(C([2H])([2H])[2H])CC2C3C(=O)N(c4cc(Cl)cc(Cl)c4)C(=O)C3C3(C(=O)Nc4c(Cl)cc(Cl)cc43)N2C1` (centres unmarked) [Example 185], for which the “Nauc @ 3 μM” value was “+++ (NAUC “+++” refers to an observed NAUC >170% of positive control)” and the “Nauc @ 10 μM” value is on record as “+++ (NAUC “+++” refers to an observed NAUC >170% of positive control)”.
Consider `N#Cc1ccccc1CC1NC2(C(=O)Nc3c(Cl)cc(Cl)cc32)C2C(=O)N(c3cc(Cl)cc(Cl)c3)C(=O)C12` (centres unmarked) [Example 186], for which the “Nauc @ 3 μM” value is recorded as “+ (NAUC “+” refers to an observed NAUC <140% of positive control)” and the “Nauc @ 10 μM” value is on record as “+++ (NAUC “+++” refers to an observed NAUC >170% of positive control)”.
For `O=C1C2C(Cc3cccc(Cl)c3)NC3(C(=O)Nc4c(Cl)cc(Cl)cc43)C2C(=O)N1c1cc(Cl)cc(Cl)c1` (centres unmarked) [Example 187], in that order: “+++ (NAUC “+++” refers to an observed NAUC >170% of positive control)” and “++ (NAUC “++” refers to an observed NAUC 170-140% of positive control)”.
The corresponding values for `O=C1C2C(Cc3ccccc3O)NC3(C(=O)Nc4c(Cl)cc(Cl)cc43)C2C(=O)N1c1cc(Cl)cc(Cl)c1` (centres unmarked) [Example 188] are “+ (NAUC “+” refers to an observed NAUC <140% of positive control)” and “+++ (NAUC “+++” refers to an observed NAUC >170% of positive control)”.
As for `N#Cc1ccc(CC2NC3(C(=O)Nc4c(Cl)cc(Cl)cc43)C3C(=O)N(c4cc(Cl)cc(Cl)c4)C(=O)C23)cc1` (centres unmarked) [Example 189], the “Nauc @ 3 μM” value is given as “+ (NAUC “+” refers to an observed NAUC <140% of positive control)” and the “Nauc @ 10 μM” value was “+++ (NAUC “+++” refers to an observed NAUC >170% of positive control)”.
For `O=C1C2C(Cc3ccccc3Cl)NC3(C(=O)Nc4c(Cl)cc(Cl)cc43)C2C(=O)N1c1cc(Cl)cc(Cl)c1` (centres unmarked) [Example 190], in that order: “+++ (NAUC “+++” refers to an observed NAUC >170% of positive control)” and “+++ (NAUC “+++” refers to an observed NAUC >170% of positive control)”.
The corresponding values for `O=C1C2C3CC(F)(F)CN3C3(C(=O)Nc4c(Cl)cc(Cl)cc43)C2C(=O)N1c1cc(Cl)cc(Cl)n1` (centres unmarked) [Example 193] are “+++ (NAUC “+++” refers to an observed NAUC >170% of positive control)” and “+++ (NAUC “+++” refers to an observed NAUC >170% of positive control)”.
For `COc1c(Cl)cc(N2C(=O)C3C4CC(F)(F)CN4C4(C(=O)Nc5c(Cl)cc(Cl)cc54)C3C2=O)cc1Cl` (centres unmarked) [Example 194], in that order: “+++ (NAUC “+++” refers to an observed NAUC >170% of positive control)” and “++ (NAUC “++” refers to an observed NAUC 170-140% of positive control)”.
Take `Cc1ccc(CC2NC3(C(=O)Nc4c(Cl)cc(Cl)cc43)C3C(=O)N(c4cc(Cl)cc(Cl)c4)C(=O)C23)cc1` (centres unmarked) [Example 195]: the “Nauc @ 3 μM” value is on record as “+ (NAUC “+” refers to an observed NAUC <140% of positive control)” and the “Nauc @ 10 μM” value is on record as “++ (NAUC “++” refers to an observed NAUC 170-140% of positive control)”.
In the case of `O=C1C2C(Cc3ccc(F)cc3)NC3(C(=O)Nc4c(Cl)cc(Cl)cc43)C2C(=O)N1c1cc(Cl)cc(Cl)c1` (centres unmarked) [Example 196], the “Nauc @ 3 μM” value is recorded as “+ (NAUC “+” refers to an observed NAUC <140% of positive control)” and the “Nauc @ 10 μM” value is “++ (NAUC “++” refers to an observed NAUC 170-140% of positive control)”.
The corresponding values for `COc1ccc(CC2NC3(C(=O)Nc4c(Cl)cc(Cl)cc43)C3C(=O)N(c4cc(Cl)cc(Cl)c4)C(=O)C23)cc1` (centres unmarked) [Example 198] are “+ (NAUC “+” refers to an observed NAUC <140% of positive control)” and “++ (NAUC “++” refers to an observed NAUC 170-140% of positive control)”.
Take `Cc1ccccc1CC1NC2(C(=O)Nc3c(Cl)cc(Cl)cc32)C2C(=O)N(c3cc(Cl)cc(Cl)c3)C(=O)C12` (centres unmarked) [Example 199]: the “Nauc @ 3 μM” value was “+++ (NAUC “+++” refers to an observed NAUC >170% of positive control)” and the “Nauc @ 10 μM” value was “++ (NAUC “++” refers to an observed NAUC 170-140% of positive control)”.

(Values after US10072017B2, “Compounds and methods for the treatment of cystic fibrosis” (Flatley Discovery Lab, LLC, priority 2015, dated 2018).)
